Like-named read-outs stand apart in the source and are kept apart here. No end group written: not given here.

Assay [1] concerns the target T1, DRB1*0701 (DR7) (Homo sapiens, UniProt P01903+P01911, A100R/A102G/A103Q/D57E/D86V/E43K/F76Y/K127E/L162R/M171V/P40G/Q125H/Q99D/R33Q/R42Y/R54Q/S133A/S66F/T210M/V115G/Y107V/Y59L/Y89S).
T1 construct: Epstein-Barr virus (EBV) transformed homozygous cell lines were used as sources; endogenous in cells; host or cells: PITOUT (EBV-transformed homozygous B cell line)
The assay is described as follows: biochemical. Format: binding.

Assay [2] has as its target T2, DRB1*0301 (DR3w17) (Homo sapiens, UniProt P01903+P01911, A100K/A102G/A103R/A169T/F55Y/I96L/K41T/L162R/M171V/P40S/Q125H/Q178H/Q39Y/R42S/S66N/T106N/T262R/W38E/Y61H). As to conditions: read-out: Binding Capacity (IC 50% nM) Other Alleles DR3.
Assay [3] deals with T3, DRB1*1302 (DR6w19) (Homo sapiens, UniProt P01903+P01911, A100E/A169T/K41T/L162R/M171V/P40S/Q125H/Q178H/Q39Y/Q99D/R42S/S66N/T262R/V115G/W38E/Y61H).
T3 construct: Epstein-Barr virus (EBV) transformed homozygous cell lines were used as sources; the source of Class II molecules the EBV transformed homozygous cell line H0301; endogenous in cells; host or cells: H0301 (EBV-transformed homozygous B cell line)
The assay is described as follows: biochemical. Format: binding.

The target in assay [4] is T4, DRB1*1201 (DR5w12) (Homo sapiens, UniProt P01903+P01911, A100R/A169T/D57E/D86V/F55L/H45Y/K41T/L162R/M171V/P40S/Q125H/Q178H/Q39Y/Q99D/R42G/S66L/T262R/V114A/V67L/W38E/Y59H/Y61H/Y89S).
T4 construct: Epstein-Barr virus (EBV) transformed homozygous cell lines were used as sources; endogenous in cells; host or cells: Herluf (EBV-transformed homozygous B cell line)
The assay is described as follows: biochemical. Format: binding.

For assay [5], the target named is T5, DRB1*0901 (DR9) (Homo sapiens, UniProt P01903+P01911, A100R/A103E/D57H/D86V/F55Y/F60I/F76Y/I96F/K127E/L162R/M171V/P40D/Q125H/Q99R/R33Q/R42F/S133A/S66N/T210M/V115G/W38K/Y107V/Y59G/Y89S).
T5 construct: Epstein-Barr virus (EBV) transformed homozygous cell lines were used as sources; endogenous in cells
The assay is described as follows: biochemical. Format: binding.

The target in assay [6] is T6, DRB1*1501 (DR2w2b) (Homo sapiens, UniProt P01903+P01911).
T6 construct: expressed in transfected cells; host or cells: transfected fibroblasts L466.1
In words: biochemical. Format: binding.

Assay [7] has as its target T7, DRB5*0101 (DR2w2a) (Homo sapiens, UniProt P01903+Q30154).
T7 construct: Epstein-Barr virus (EBV) transformed homozygous cell lines were used as sources; endogenous in cells; host or cells: GM3107 (EBV-transformed homozygous B cell line)
The assay is described as follows: biochemical. Format: binding. To be noted: Binding Capacity (IC 50% nM) Other Alleles DR2w2a.

For assay [8], the target named is T8, DRB1*0401 (DR4w4) (Homo sapiens, UniProt P01903+P01911, A100K/A169T/F76Y/I96L/K127E/L162R/M171V/N62H/P40V/Q125Y/R42H/S133A/S149N/S66Y/V115G/V209L/W38E).
T8 construct: Epstein-Barr virus (EBV) transformed homozygous cell lines were used as sources; endogenous in cells; host or cells: PREISS (EBV-transformed homozygous B cell line)
In words: biochemical. Format: binding.

The target of assay [9] is T9, DRB1*0802 (DR8w2) (Homo sapiens, UniProt P01903+P01911, A100R/A103L/A169T/F76Y/H45Y/I96F/K41T/L162R/M171V/P40S/Q125H/Q178H/Q39Y/Q99D/R218S/R42G/S66Y/V115G/W38E).
T9 construct: Epstein-Barr virus (EBV) transformed homozygous cell lines were used as sources; endogenous in cells; host or cells: OLL (EBV-transformed homozygous B cell line)
In words: biochemical. Format: binding.

Assay [10] has as its target T10, DRB1*0405 (DR4w15) (Homo sapiens, UniProt P01903+P01911, A100R/A169T/D86S/F76Y/I96L/K127E/L162R/M171V/N62H/P40V/Q125Y/R42H/S133A/S149N/S66Y/V115G/V209L/W38E).
T10 construct: Epstein-Barr virus (EBV) transformed homozygous cell lines were used as sources; endogenous in cells; host or cells: KT3 (EBV-transformed homozygous B cell line)
The assay is described as follows: biochemical. Format: binding.

The target of assay [11] is T2, DRB1*0301 (DR3w17). The assay is described as follows: biochemical. To be noted: Binding Capacity (IC50% nM) DR3.
For assay [12], the target named is T11, DRB1*1101 (DR5w11) (Homo sapiens, UniProt P01903+P01911, A100R/A169T/A87E/I96F/K41T/L162R/M171V/P40S/Q125H/Q178H/Q39Y/Q99D/R42S/S66Y/T262R/V115G/W38E).
T11 construct: Epstein-Barr virus (EBV) transformed homozygous cell lines were used as sources; endogenous in cells; host or cells: SWEIG (EBV-transformed homozygous B cell line)
T11 sequence (P01903 26-254, other chains not shown): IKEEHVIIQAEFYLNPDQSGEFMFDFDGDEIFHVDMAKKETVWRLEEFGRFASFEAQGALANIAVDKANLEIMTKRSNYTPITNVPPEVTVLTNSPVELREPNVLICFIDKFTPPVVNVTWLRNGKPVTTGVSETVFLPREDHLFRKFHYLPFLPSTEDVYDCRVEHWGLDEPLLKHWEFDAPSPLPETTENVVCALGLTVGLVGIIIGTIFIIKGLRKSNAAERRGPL
The assay is described as follows: biochemical. Format: binding.

Assay [13] addresses T12, DRB1*0101 (DR1) (Homo sapiens, UniProt P01903+P01911, A100R/D57E/F55L/F60I/F76Y/I96L/L162R/M171V/P40L/Q125E/R42F/V115G/Y59C).
T12 construct: Epstein-Barr virus (EBV) transformed homozygous cell lines were used as sources; endogenous in cells; host or cells: LG2 (EBV-transformed homozygous B cell line)
The assay is described as follows: biochemical. Format: binding.

The mark [14] stands for this setting: read-out: Binding Capacity (IC 50% nM) Other Alleles DR6w19.
[15] abbreviates: read-out: Binding Capacity (IC 50% nM) Other Alleles DR5w12.
Setting [16] is: read-out: Binding Capacity (IC 50% nM) Other Alleles DR2w2b.
The mark [17] stands for this setting: Binding Capacity (IC 50% nM) DR1,4,7 DR4w4.
Setting [18] is: Binding Capacity (IC 50% nM) Other Alleles DR8w2.
Where [19] appears, read: Binding Capacity (IC 50% nM) Other Alleles DR4w15.
[20] abbreviates: Binding Capacity (IC 50% nM) DR1,4,7 DRB1.

LFHYYFLSEKAPGSTV [Peptide 1136.04]: the IC50 is 3330 nM in [1] (Binding Capacity (IC50% nM) DR7); more than 1000 nM in assay [1] (read-out: Binding Capacity (IC 50% nM) DR1,4,7 DR7); more than 1000 nM in assay [2]; more than 10000 nM in assay [3] (Binding Capacity (IC50% nM) DR6w19); more than 1000 nM in [3] (setting [14]); more than 10000 nM in assay [4] (Binding Capacity (IC50% nM) DR5w12). Moreover, the IC50 in assay [4] (setting [15]) was more than 1000 nM; in assay [5] (Binding Capacity (IC50% nM) DR9), 2880 nM; in assay [5] (read-out: Binding Capacity (IC 50% nM) Other Alleles DR9) it was more than 1000 nM; in assay [6] (Binding Capacity (IC50% nM) DR2w2b), 1260 nM; in [6] (setting [16]), more than 1000 nM; in [7], less than 1000 nM. The IC50 is less than 1000 nM in [8] (setting [17]); 20 nM in assay [8] (Binding Capacity (IC50% nM) DR4w4); 55 nM in assay [9] (Binding Capacity (IC50% nM) DR8w2); less than 1000 nM in assay [9] (setting [18]); 563 nM in assay [10] (Binding Capacity (IC50% nM) DR4w15); less than 1000 nM in assay [10] (setting [19]). For the same compound, the IC50 in assay [11] was more than 10000 nM; in assay [12] (Binding Capacity (IC50% nM) DR5w11), 69 nM; in assay [12] (Binding Capacity (IC 50% nM) Other Alleles DR5w11), less than 1000 nM; in [13] (Binding Capacity (IC50% nM) DR1), 24 nM; in assay [13] (setting [20]), less than 1000 nM.
In the case of `CC(C)C[C@H](NC(=O)[C@H](Cc1c[nH]c2ccccc12)NC(=O)[C@@H](NC(=O)[C@H](Cc1ccccc1)NC(=O)[C@@H](NC(=O)[C@@H]1CCCN1C(=O)[C@H](CC(C)C)NC(=O)[C@H](C)NC(=O)[C@@H]1CCCN1C(=O)[C@H](CC(C)C)NC(=O)[C@H](Cc1ccccc1)NC(=O)[C@H](Cc1ccccc1)NC(=O)[C@H](CCC(N)=O)NC(=O)[C@H](CO)NC(=O)[C@@H](NC(=O)[C@@H](N)CC(C)C)[C@@H](C)O)C(C)C)[C@@H](C)O)C(=O)O` [Peptide 1136.16], the IC50 in [1] (Binding Capacity (IC 50% nM) DR1,4,7 DR7) is less than 1000 nM; in assay [2] it was more than 1000 nM; in assay [3] (setting [14]), more than 1000 nM; in assay [4] (setting [15]), more than 1000 nM; in assay [5] (Binding Capacity (IC 50% nM) Other Alleles DR9), less than 1000 nM; in assay [6] (setting [16]) it was more than 1000 nM. In addition, the IC50 in assay [7] was less than 1000 nM; in assay [8] (setting [17]), less than 1000 nM; in assay [9] (setting [18]) it was less than 1000 nM; in [10] (setting [19]) it was less than 1000 nM; in [11], more than 10000 nM; in assay [12] (read-out: Binding Capacity (IC 50% nM) Other Alleles DR5w11), more than 1000 nM. The IC50 in [13] (setting [20]) was less than 1000 nM.

(Values after patent US6413517B1, “Identification of broadly reactive DR restricted epitopes” (Epimmune, Inc., priority 1997, dated 2002).)
